# From patent US10125144B2, “Rho kinase inhibitors” (Kadmon Corporation, LLC, priority 2013, dated 2018)
# Several values for one entry are separate records, joined by “and”; a condition that tells them apart may be missing. Equal values may be shown once. Entries after “also recorded” stand apart in the source; their conditions may differ. Read-outs that look alike come from different tables or passages of the source.
# B1: Mab 147: affinity matured anti-VEGFR2 antibody derived from Mab 138; VH SEQ ID NO:200, VL SEQ ID NO:204 (antibody, V domains shown)
# VH: EVQLLESGGGLVQPGGSLRLSCAASGFTFSWYVMGWVRQAPGKGLEWVSSIYPQGGATSYADSVKGRFTISRDNSKNTLYLQMNSLRAEDTAVYYCARGNYFDYWGQGTLVTVSS
# VL: DIQMTQSPGTLSLSPGEGATLSCRASQSVSSNYFGWYQQKPGQAPRLLIYGASSRATGIPDRFSGSGSGTDFTLTISRLEPEDSAVYYCQQFDSLPLTFGGGTKVEIKR
# modifications: Mutation of library member
# B2: Mab 149: affinity matured anti-VEGFR2 antibody derived from Mab 138; VH SEQ ID NO:216, VL SEQ ID NO:220 (antibody, V domains shown)
# VH: EVQLLESGGGLVQPGGSLRLSCAASGFTFSWYVMGWVRQAPGKGLEWVSSIYPSGGATNYADSVKGRFTISRDNSKNTLYLQMNSLRAEDTAVYYCARGNYLDYWGQGTLVTVSS
# VL: DIQMTQSPGTLSLSPGEGATLSCRASQSVSSNYFGWYQQKPGQAPRLLIYGASSRATGIPDRFSGSGSGTDFTLTISRLEPEDSAVYYCQQFDSSPLSFGGGTKVEIKR
# modifications: Mutated library sequence
# Key:
# ROCK1 = ROCK1 (Homo sapiens (Human), UniProt Q13464); experiment: Invitrogen Z'-LYTE kinase assay, ROCK1 inhibition; assay type: biochemical; details: 5 uM ATP
# ROCK1, sequence (Q13464 whole entry): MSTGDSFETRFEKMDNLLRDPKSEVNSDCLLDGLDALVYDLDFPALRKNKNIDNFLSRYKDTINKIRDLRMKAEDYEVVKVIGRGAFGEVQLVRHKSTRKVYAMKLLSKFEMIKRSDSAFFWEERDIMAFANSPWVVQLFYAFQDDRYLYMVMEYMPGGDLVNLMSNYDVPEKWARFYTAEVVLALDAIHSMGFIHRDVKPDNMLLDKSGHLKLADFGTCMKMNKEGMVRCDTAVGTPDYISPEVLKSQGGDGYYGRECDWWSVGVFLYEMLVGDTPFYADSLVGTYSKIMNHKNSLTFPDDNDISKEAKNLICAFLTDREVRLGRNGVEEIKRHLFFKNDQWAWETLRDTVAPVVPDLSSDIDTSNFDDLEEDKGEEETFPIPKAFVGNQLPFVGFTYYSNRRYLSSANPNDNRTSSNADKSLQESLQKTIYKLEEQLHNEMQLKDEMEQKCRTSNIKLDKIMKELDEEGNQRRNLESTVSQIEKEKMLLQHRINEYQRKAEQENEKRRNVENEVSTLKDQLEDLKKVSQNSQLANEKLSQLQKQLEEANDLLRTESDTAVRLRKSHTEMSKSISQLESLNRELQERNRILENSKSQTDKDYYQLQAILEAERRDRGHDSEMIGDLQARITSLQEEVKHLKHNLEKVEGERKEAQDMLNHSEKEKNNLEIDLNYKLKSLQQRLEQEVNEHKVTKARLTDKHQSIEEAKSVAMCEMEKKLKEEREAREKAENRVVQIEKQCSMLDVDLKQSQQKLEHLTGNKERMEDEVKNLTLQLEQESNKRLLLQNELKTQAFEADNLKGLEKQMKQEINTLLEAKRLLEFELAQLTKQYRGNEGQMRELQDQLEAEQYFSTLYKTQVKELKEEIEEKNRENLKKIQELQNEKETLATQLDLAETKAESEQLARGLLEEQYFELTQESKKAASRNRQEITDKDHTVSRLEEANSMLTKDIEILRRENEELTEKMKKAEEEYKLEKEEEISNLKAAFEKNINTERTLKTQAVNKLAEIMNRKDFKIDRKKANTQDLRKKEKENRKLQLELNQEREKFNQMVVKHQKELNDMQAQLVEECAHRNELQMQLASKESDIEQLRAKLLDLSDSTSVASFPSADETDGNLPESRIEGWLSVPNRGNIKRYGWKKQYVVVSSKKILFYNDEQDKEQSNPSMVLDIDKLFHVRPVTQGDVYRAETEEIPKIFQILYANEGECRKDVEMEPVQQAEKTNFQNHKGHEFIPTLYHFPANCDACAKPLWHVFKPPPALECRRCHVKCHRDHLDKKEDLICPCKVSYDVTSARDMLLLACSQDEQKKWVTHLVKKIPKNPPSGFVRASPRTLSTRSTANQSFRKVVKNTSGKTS
# Source text: (§1) Dose response curves for Rho-kinase inhibition were derived from a Invitrogen Z′-LYTE™ Kinase Assay Kit (Invitrogen catalog number PV3793). Purified active ROCK1 and ROCK2 were obtained from Invitrogen (catalog numbers ROCK1, PV3691 and ROCK2, PV3759). The kit components include a coumarin and fluorescein labeled peptide based on myosin light chain 2 ([sequence]), a proprietary protease containing development reagent and a proprietary Stop buffer used to terminate the development reaction. The inhibitory activities of compounds are measured according to the manufactures protocol. Briefly, decreasing concentrations of test compounds or the known ROCK inhibitor Y-27963, are added, from 10 uM to 2.56×10^−5 uM to reaction buffer containing 50 mM HEPES pH 7.5, 10 mM MgCl2, 5 mM EGTA, and 0.05% Brij-35 and of ROCK1 at 0.18 ug/mL or ROCK2 at 0.8 ug/mL in assay dilution buffer. This mixture is overlayed into a white 96-well half area plate and the reaction is initiated with the addition of 5 uM ATP for ROCK1 or 12 uM ATP for ROCK2. The assay proceeds at room temperature for 1 hour followed by the addition of development reagent, and further incubation for 1 hour at room temperature. STOP reagent is then added and the reaction and immediately the coumarin and fluorescein emission signals are read on a Tecan Infinite M1000 fluorescence plate reader (excitation: 400 nm; emission 445 and 520 nm, respectively). By comparing the emission ratios of the test samples against control samples, percent phosphorylation values are calculated and the concentration of inhibitor that produces ½ inhibition of kinase activity (IC50) is determined using Prism.
# ROCK2 = ROCK2 (Homo sapiens (Human), UniProt O75116); experiment: Invitrogen Z'-LYTE kinase assay, ROCK2 inhibition; assay type: biochemical; details: ROCK2 0.8 ug/mL, 12 uM ATP
# ROCK2, sequence (O75116 whole entry): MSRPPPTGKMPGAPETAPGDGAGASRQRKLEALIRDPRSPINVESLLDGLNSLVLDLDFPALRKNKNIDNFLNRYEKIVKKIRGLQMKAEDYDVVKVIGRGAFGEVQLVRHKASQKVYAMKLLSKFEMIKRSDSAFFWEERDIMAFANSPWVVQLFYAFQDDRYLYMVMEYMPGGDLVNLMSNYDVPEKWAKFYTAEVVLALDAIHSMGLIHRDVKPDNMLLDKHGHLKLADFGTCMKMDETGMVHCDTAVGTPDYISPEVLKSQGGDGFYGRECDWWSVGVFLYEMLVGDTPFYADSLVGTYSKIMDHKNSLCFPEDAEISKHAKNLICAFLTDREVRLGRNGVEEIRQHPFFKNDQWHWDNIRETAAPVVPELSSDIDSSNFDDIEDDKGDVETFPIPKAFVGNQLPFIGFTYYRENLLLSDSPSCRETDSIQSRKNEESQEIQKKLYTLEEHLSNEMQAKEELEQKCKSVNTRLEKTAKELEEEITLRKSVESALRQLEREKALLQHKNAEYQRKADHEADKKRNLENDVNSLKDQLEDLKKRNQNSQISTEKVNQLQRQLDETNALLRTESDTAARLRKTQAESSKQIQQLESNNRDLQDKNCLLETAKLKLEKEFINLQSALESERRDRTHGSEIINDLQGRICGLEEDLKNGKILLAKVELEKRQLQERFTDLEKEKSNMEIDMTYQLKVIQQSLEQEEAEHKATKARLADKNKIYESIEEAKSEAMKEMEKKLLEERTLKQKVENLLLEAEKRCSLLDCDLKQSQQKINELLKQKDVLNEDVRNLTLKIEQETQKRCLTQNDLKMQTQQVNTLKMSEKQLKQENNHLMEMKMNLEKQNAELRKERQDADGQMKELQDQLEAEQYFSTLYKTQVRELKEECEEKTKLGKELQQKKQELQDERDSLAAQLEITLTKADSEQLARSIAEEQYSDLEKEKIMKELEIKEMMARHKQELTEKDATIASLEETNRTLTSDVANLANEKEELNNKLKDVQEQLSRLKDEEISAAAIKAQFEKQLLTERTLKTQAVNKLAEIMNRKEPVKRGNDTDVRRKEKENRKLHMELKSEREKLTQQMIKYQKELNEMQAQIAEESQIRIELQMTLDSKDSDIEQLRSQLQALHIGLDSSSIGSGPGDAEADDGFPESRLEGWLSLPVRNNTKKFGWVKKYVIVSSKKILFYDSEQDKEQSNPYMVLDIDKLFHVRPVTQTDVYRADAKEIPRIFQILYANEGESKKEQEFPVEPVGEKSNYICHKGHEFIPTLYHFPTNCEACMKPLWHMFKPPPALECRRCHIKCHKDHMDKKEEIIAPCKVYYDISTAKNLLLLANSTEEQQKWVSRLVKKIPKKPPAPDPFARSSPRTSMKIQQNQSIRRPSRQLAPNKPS
# Source text: as §1
# CD4+ human T cells = experiment: cytokine secretion by CD4+ human T cells stimulated with anti-CD3/CD28; assay type: cell-based
# Source text: Activation of resting T cells, resulting in cytokine secretion and proliferation, involves two distinct signals from antigen-presenting cells (APCs), mimicked by co-stimulation of the T cell receptor (TCR)/CD3 complex and the CD28 receptor. […] Under the same conditions, the inhibition of IFN-γ and IL-2 was not observed (FIG. 2).
# [1] = system: experimental autoimmune encephalomyelitis (EAE); experiment: experimental autoimmune encephalomyelitis (EAE) in mice; assay type: in vivo; details: C57BL/6 mice, MOG35-55 in CFA, 150 mg/kg QD or BID
# murine VEGFR2 [2] = biological target: T1, murine VEGFR2 (Mus musculus (Mouse), UniProt P35918); experiment: ELISA receptor binding, mVEGFR2
# T1 sequence (P35918 20-1345): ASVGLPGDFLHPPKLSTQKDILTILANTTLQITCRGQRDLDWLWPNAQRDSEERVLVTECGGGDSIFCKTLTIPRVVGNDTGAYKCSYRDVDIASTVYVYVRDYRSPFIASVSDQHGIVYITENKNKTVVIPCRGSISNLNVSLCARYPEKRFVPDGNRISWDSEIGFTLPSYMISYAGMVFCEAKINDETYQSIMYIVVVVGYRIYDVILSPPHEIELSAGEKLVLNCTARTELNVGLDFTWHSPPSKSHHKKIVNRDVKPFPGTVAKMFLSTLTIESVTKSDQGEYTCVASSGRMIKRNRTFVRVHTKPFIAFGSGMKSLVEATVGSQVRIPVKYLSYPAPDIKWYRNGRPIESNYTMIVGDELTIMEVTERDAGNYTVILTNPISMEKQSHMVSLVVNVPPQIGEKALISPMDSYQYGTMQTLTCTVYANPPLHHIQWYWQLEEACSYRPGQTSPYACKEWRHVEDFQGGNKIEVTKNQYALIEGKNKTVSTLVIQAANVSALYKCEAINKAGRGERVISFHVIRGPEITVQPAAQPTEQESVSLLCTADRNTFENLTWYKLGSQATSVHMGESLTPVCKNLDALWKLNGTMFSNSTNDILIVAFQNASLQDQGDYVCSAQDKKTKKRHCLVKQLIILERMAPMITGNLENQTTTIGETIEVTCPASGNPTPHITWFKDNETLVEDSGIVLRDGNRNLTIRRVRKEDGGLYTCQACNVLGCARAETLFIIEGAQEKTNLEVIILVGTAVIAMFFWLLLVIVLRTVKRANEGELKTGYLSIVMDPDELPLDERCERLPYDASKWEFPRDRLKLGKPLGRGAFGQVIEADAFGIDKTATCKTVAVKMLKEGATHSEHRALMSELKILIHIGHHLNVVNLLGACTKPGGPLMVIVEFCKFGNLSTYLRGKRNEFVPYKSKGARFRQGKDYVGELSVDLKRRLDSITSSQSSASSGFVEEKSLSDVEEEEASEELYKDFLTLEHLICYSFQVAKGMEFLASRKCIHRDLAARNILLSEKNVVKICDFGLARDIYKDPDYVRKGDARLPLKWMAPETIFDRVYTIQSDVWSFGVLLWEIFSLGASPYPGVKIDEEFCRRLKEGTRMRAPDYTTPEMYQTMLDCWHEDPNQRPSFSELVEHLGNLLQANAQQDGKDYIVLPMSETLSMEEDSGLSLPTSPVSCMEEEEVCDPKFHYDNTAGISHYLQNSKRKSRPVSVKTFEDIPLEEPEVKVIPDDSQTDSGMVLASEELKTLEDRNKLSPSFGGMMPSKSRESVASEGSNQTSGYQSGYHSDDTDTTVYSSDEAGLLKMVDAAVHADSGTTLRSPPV
# KDR-PAE cells [3] = experiment: VEGF-induced migration of KDR-PAE cells; assay type: cell-based, porcine; details: VEGF gradient
# Protocol: Migration of KDR-PAE cells was induced with a VEGF gradient (50 ng/ml VEGF (up), 100 ng/ml VEGF (low)).
# [4] = biological target: binding of human VEGF with human VEGFR2 (Homo sapiens (Human), UniProt P35968); experiment: ELISA ligand blocking, human VEGF / human VEGFR2
# [5] = biological target: binding of murine VEGF with murine VEGFR2 (Mus musculus (Mouse), UniProt P35918); experiment: ELISA ligand blocking, murine VEGF / murine VEGFR2
# binding of murine VEGF with murine VEGFR2, sequence (P35918 20-762): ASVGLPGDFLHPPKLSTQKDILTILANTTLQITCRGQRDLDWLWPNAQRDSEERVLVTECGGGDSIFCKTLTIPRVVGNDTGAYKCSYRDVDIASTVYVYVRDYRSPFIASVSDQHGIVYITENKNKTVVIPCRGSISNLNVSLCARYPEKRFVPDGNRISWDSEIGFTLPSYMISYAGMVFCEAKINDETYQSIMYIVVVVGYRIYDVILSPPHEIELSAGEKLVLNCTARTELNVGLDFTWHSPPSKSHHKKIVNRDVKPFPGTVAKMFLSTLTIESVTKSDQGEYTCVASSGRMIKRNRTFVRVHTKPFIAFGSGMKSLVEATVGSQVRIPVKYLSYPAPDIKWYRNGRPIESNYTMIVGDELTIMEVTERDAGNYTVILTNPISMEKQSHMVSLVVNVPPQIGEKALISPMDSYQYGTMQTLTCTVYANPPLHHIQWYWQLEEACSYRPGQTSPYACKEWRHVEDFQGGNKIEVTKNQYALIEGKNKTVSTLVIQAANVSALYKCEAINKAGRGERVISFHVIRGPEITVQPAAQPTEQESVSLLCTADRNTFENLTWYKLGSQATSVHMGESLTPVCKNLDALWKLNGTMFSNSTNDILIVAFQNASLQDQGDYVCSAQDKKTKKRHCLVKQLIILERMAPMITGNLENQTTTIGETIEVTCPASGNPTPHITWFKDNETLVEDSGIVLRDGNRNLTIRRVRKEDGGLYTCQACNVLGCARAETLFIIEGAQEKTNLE
# murine VEGFR2 [6] = biological target: T1, murine VEGFR2; experiment: Biacore analysis of binding to murine VEGFR2; details: murine antigen
# rat VEGFR2 = rat VEGFR2 (Rattus norvegicus (Rat), UniProt O08775); experiment: Biacore analysis of binding to rat VEGFR2; details: rat antigen
# Protocol: The binding constants of Mab 147 and Mab 149 as well as the parent Mab 160 for human, murine, and rat VEGFR2 were determined by Biacore analysis (Table 4).
# KDR-PAE cells [7] = experiment: proliferation of KDR-PAE cells; assay type: cell-based, porcine
# human VEGFR2 [8] = biological target: T2, human VEGFR2 (Homo sapiens (Human), UniProt P35968); experiment: ELISA receptor binding, hVEGFR2
# human VEGFR2 [9] = biological target: T2, human VEGFR2; experiment: Biacore analysis of binding to human VEGFR2; details: human antigen
# [10] = biological target: human VEGFR2 on HUVEC and KDR-PAE cells (Homo sapiens (Human), UniProt P35968); experiment: binding to hVEGFR2 on HUVEC and KDR-PAE cells; assay type: cell-based
# Source text: Binding of Mab 147 to hVEGFR2 and mVEGFR2 expressed on cell membranes was also confirmed. […] Mab 147 also bound to mVEGFR expressed by MS1 murine endothelial cells (FIG. 8B).
# [11] = system: phosphorylation of KDR and p44/42 in HUVEC; experiment: VEGFR2-mediated signal transduction in HUVEC; assay type: cell-based, human
# [12] = biological target: VEGFR2 on MS1 murine endothelial cells (Mus musculus (Mouse), UniProt P35918); experiment: binding to VEGFR2 on MS1 murine endothelial cells; assay type: cell-based
# VEGFR2 on MS1 murine endothelial cells, sequence (P35918 20-1345): as the sequence (P35918 20-1345) above
# [13] = system: phosphorylation of KDR and p44/42 in KDR-PAE cells; experiment: VEGFR2-mediated signal transduction in KDR-PAE cells; assay type: cell-based, porcine
molecule,measurement,setting,value
"COc1ccc2c(c1)CN(c1nc3c(c(Nc4ccc5[nH]ncc5c4)n1)COCC3)C2 [Example 21, N-(1H-Indazol-5-yl)-2-(5-methoxyisoindolin-2-yl)-7,8-dihydro-5H-pyrano[4,3-d]pyrimidin-4-amine]",IC50,ROCK1,> 10 µM
same,IC50,ROCK2,0.185 µM
"COCc1ccc2c(c1)CN(c1nccc(Nc3ccc4[nH]ncc4c3)n1)C2 [Example 27, N-(2-(5-(Methoxymethyl)isoindolin-2-yl)pyrimidin-4-yl)-1H-indazol-5-amine]",IC50,ROCK1,6.73 µM
same,IC50,ROCK2,0.1 µM
"Fc1cccc2c1CN(c1nccc(Nc3ccc4[nH]ncc4c3)n1)C2 [Example 29, N-(2-(4-Fluoroisoindolin-2-yl)pyrimidin-4-yl)-1H-indazol-5-amine]",IC50,ROCK2,0.88 µM
"COc1ccc2c(c1)CN(c1ccnc(Nc3ccc4[nH]ncc4c3)n1)C2 [Example 8, N-(4-(5-Methoxyisoindolin-2-yl)pyrimidin-2-yl)-1H-indazol-5-amine]",IC50,ROCK1,> 10 µM
"COc1nc(N2Cc3ccccc3C2)nc(Nc2ccc3[nH]ncc3c2)c1OC [Example 32, N-(2-(Isoindolin-2-yl)-5,6-dimethoxypyrimidin-4-yl)-1H-indazol-5-amine]",IC50,ROCK1,> 10 µM
same,IC50,ROCK2,0.607 µM
"c1cc2c(cn1)CN(c1nccc(Nc3ccc4[nH]ncc4c3)n1)C2 [Example 15, N-(2-(1H-Pyrrolo[3,4-c]pyridin-2(3H)-yl)pyrimidin-4-yl)-1H-indazol-5-amine]",IC50,ROCK1,> 10 µM
"COc1ccc2c(c1)CN(c1nccc(Nc3ccc(-c4ccncc4)cc3)n1)C2 [Example 20, 2-(5-Methoxyisoindolin-2-yl)-N-(4-(pyridin-4-yl)phenyl)pyrimidin-4-amine]",IC50,ROCK1,> 10 µM
"COc1ccc2c(c1)CN(c1nc3c(c(Nc4ccc5[nH]ncc5c4)n1)CNC3)C2 [Example 22, N-(1H-Indazol-5-yl)-2-(5-methoxyisoindolin-2-yl)-6,7-dihydro-5H-pyrrolo[3,4-d]pyrimidin-4-amine]",IC50,ROCK2,24.3 µM and 24 µM
"COc1ccc2c(c1)CN(c1nccc(Nc3ccncc3)n1)C2 [Example 19, 2-(5-Methoxyisoindolin-2-yl)-N-(pyridin-4-yl)pyrimidin-4-amine]",IC50,ROCK1,> 10 µM
same,IC50,ROCK2,> 10 µM
"N#Cc1ccc2c(c1)CN(c1nccc(Nc3ccc4[nH]ncc4c3)n1)C2 [Example 26, 2-(4-((1H-Indazol-5-yl)amino)pyrimidin-2-yl)isoindoline-5-carbonitrile]",IC50,ROCK1,> 10 µM
same,IC50,ROCK2,0.123 µM
"Clc1ccc2c(c1)CN(c1nccc(Nc3ccc4[nH]ncc4c3)n1)C2 [Example 10, N-(2-(5-Chloroisoindolin-2-yl)pyrimidin-4-yl)-1H-indazol-5-amine]",IC50,ROCK1,> 10 µM
"COc1ccc2c(c1)CN(c1nc3c(c(Nc4ccc5[nH]ncc5c4)n1)CCN(C)C3)C2 [Example 25, N-(1H-Indazol-5-yl)-2-(5-methoxyisoindolin-2-yl)-7-methyl-5,6,7,8-tetrahydropyrido[3,4-d]pyrimidin-4-amine]",IC50,ROCK1,> 10 µM
same,IC50,ROCK2,0.13 µM
"c1ccc2c(c1)CN(c1nccc(Nc3ccc4[nH]ncc4c3)n1)C2 [Example 2, N-(2-(Isoindolin-2-yl)pyrimidin-4-yl)-1H-indazol-5-amine]",IC50,ROCK1,> 10 µM
"COc1ccc2c(c1)CN(c1nc(C)c(C)c(Nc3ccc4[nH]ncc4c3)n1)C2 [Example 16, N-(2-(5-Methoxyisoindolin-2-yl)-5,6-dimethylpyrimidin-4-yl)-1H-indazol-5-amine]",IC50,ROCK2,> 0.01 µM
"Fc1ccc2c(c1)CN(c1nc3c(c(Nc4ccc5[nH]ncc5c4)n1)COC3)C2 [Example 30, 2-(5-Fluoroisoindolin-2-yl)-N-(1H-indazol-5-yl)-5,7-dihydrofuro[3,4-d]pyrimidin-4-amine]",IC50,ROCK1,> 10 µM
"COc1ccc2c(c1)CN(c1cc(Nc3ccc4[nH]ncc4c3)ncn1)C2 [Example 13, N-(6-(5-Methoxyisoindolin-2-yl)pyrimidin-4-yl)-1H-indazol-5-amine]",IC50,ROCK1,> 10 µM
"COc1ccc2c(c1)CN(c1nc3c(c(Nc4ccc5[nH]ncc5c4)n1)CCNC3)C2 [Example 24, N-(1H-Indazol-5-yl)-2-(5-methoxyisoindolin-2-yl)-5,6,7,8-tetrahydropyrido[3,4-d]pyrimidin-4-amine]",IC50,ROCK1,2.5 µM
"c1ccc2c(c1)CN(c1nc3c(c(Nc4ccc5[nH]ncc5c4)n1)COC3)C2 [Example 17, N-(1H-Indazol-5-yl)-2-(isoindolin-2-yl)-5,7-dihydrofuro[3,4-d]pyrimidin-4-amine]",IC50,ROCK1,> 10 µM
"COc1ccc2c(c1)CCN(c1nccc(Nc3ccc4[nH]ncc4c3)n1)C2 [Example 11, N-(2-(6-Methoxy-3,4-dihydroisoquinolin-2(1H)-yl)pyrimidin-4-yl)-1H-indazol-5-amine]",IC50,ROCK1,> 10 µM
"c1cc(Nc2ccc3[nH]ncc3c2)nc(N2CCc3sccc3C2)n1 [Example 12, N-(2-(6,7-Dihydrothieno[3,2-c]pyridin-5(4H)-yl)pyrimidin-4-yl)-1H-indazol-5-amine]",IC50,ROCK1,> 10 µM
"COc1ccc2c(c1)CN(c1cc(Nc3ccc4[nH]ncc4c3)nc(C)n1)C2 [Example 14, N-(6-(5-Methoxyisoindolin-2-yl)-2-methylpyrimidin-4-yl)-1H-indazol-5-amine]",IC50,ROCK1,> 10 µM
same,IC50,ROCK2,0.13 to 0.18 µM
"COc1ccc2c(c1)CN(c1nccc(Nc3ccc4[nH]ncc4c3)n1)C2 [Example 1, N-(2-(5-Methoxyisoindolin-2-yl)pyrimidin-4-yl)-1H-indazol-5-amine]",IFN-γ secretion,CD4+ human T cells,not observed
same,IL-2 secretion,CD4+ human T cells,not observed
same,IL-17 secretion,CD4+ human T cells,dose-dependent; also recorded: significantly inhibited
same,IL-21 secretion,CD4+ human T cells,inhibits; also recorded: significantly inhibited
same,EAE paralysis / mean clinical score,[1],reduces paralysis
same,EAE paralysis / mean clinical score,[1]; listed as compound 1,substantial improvement
B1,binding to murine VEGFR2,murine VEGFR2 [2],binds to both hVEGFR2 and mVEGFR2 with similar affinity
same,VEGF-induced migration of KDR-PAE cells,KDR-PAE cells [3],inhibiting
same,blocking of binding of human VEGF with human VEGFR2,[4],blocks ligand binding
same,blocking of binding of murine VEGF with murine VEGFR2,[5],blocks ligand binding
same,ka,murine VEGFR2 [6],4.38E+04
same,kd,murine VEGFR2 [6],1.28E−03
same,ka,rat VEGFR2,6.45E+04
same,kd,rat VEGFR2,8.99E−04
same,proliferation of KDR-PAE cells,KDR-PAE cells [7],inhibit
same,binding to human VEGFR2,human VEGFR2 [8],binds to both hVEGFR2 and mVEGFR2 with similar affinity
same,ka,human VEGFR2 [9],1.13E+05
same,kd,human VEGFR2 [9],2.82E−04
same,binding to hVEGFR2 expressed on cell membranes,[10],confirmed
same,phosphorylation of KDR and p44/42,[11],inhibit
same,phosphorylation of KDR and p44/42,[11]; listed as Mab-147,reduced phosphorylation
same,binding to VEGFR2 on MS1 murine endothelial cells,[12],binds; also recorded: bound
same,phosphorylation of KDR and p44/42,[13],inhibit
same,phosphorylation of KDR and p44/42,[13]; listed as Mab-147,reduced phosphorylation
B2,ka,murine VEGFR2 [6],2.29E+04
same,kd,murine VEGFR2 [6],1.81E−03
same,ka,rat VEGFR2,3.32E+04
same,kd,rat VEGFR2,1.43E−03
same,ka,human VEGFR2 [9],8.62E+04
same,kd,human VEGFR2 [9],6.59E−04
